Experiment [1] has as its system death induced by pulmonary infarction in mice. Nature of the experiment: Antithrombotic activity: inhibition of death by collagen-induced pulmonary infarction in mice. The format is in vivo, male ICR mice. Conditions: Mus musculus, 1 h; 30 mg/kg oral, 10 minutes before i.v. collagen; lethality in an hour; read-out: Pulmonary infarction inhibitory activity. The source says: Pharmacological Experiment 2 Antithrombotic activity
Antithrombotic activity of the test compounds was estimated by an inhibitory activity of the test compound by oral administration against death induced by pulmonary infarction in mice which was introduced by intravenous administration of collagen (pulmonary infarction inhibitory activity).
Male ICR mice (5-week old, body weight; about 25 g) was fasted overnight, and separated into groups (15 mice per each group) and numbered. A test compound solution, which was prepared by suspending a test compound in 1% hydroxypropylmethyl cellulose 2910 TC-5 (HPMC, manufactured by Shin-etsu Chemical Co., Ltd.), was orally administered to the mice, and 10 minutes thereafter, a collagen solution (the method for preparation thereof and a dose thereof are explained hereafter) was injected to the mice at the tail vein at the constant rate. The lethality of the mice was determined by the number of mice which were died in an hour after the administration of collagen solution. The antithrombotic activity of the test compound was estimated by the inhibitory rate (%) of the lethality of the mice. The collagen solution was prepared by dissolving collagen (Type III, manufactured by Sigma Chemical Ltd.) in 0.05 M acetic acid solution containing 2 mM calcium chloride and 5% glucose at 4° C. so that the final concentration of collagen was adjusted to 2.5 mg/ml, and then the pH value thereof was adjusted to pH 7.4 with sodium hydroxide the day before the experiment. The collagen solution was incubated with stirring at 37° C. for two hours, and then further stirred at room temperature overnight. Just before the experiment, the pH value of the collagen solution was adjusted again to pH 7.4. The amount of the collagen solution which was injected at the tail vein was previously determined so that the lethality by pulmonary infarction induced thereby became about 75%.

Experiment [2] concerns platelet aggregation (collagen). Nature of the experiment: Platelet aggregation inhibitory activity, collagen-induced (Born's turbidimetry, rabbit PRP). It counts as cell-based, male rabbit (NZW). Conditions: Oryctolagus cuniculus, collagen 20 μg/ml final, 37° C. The protocol: (§1) Pharmacological Experiment 1 Platelet aggregation inhibitory activity
(§2) (1) Preparation of platelet rich plasma (PRP):
(§3) The blood was collected from the carotid of a male rabbit without anesthesia (NZW species, body weight; 2-3 kg) with mixing thereof with 1/10 volume of citric acid. The blood thus obtained was separated and put into plastic test tubes (each about 7 ml), and centrifuged at 900 rpm for 15 minutes at room temperature to give a turbid supernatant as a platelet rich plasma (PRP). The residue from which PRP is separated was centrifuged at 3000 rpm for 10 minutes, and the supernatant was collected as a platelet poor plasma (PPP). The PRP was diluted with PPP so that the concentration thereof was adjusted to […], and used in the platelet aggregation inhibitory activity test.
(§4) (2) Method for platelet aggregation inhibitory activity test:
(§5) The platelet aggregation was tested according to Born's turbidimetry. That is, a test compound was dissolved in dimethylformamide, and the test compound solution (1 μl) thus obtained was put into a cuvette, and thereto was further added PRP (200 μl). Immediately thereafter, the cuvette was set into an apparatus for determining platelet aggregation activity, PAM-8T (manufactured by Mevanix Inc.), and the mixture was incubated at 37° C. Precisely three minutes thereafter, a solution of adenosine diphosphate (ADP, PA test ADP [MCM], purchased by MC Medical Ltd.) in physiological saline solution or a collagen solution (Collagenreagent Horm, purchased by MC Medical Ltd.) (20 μl) was added thereto. The final concentration of the ADP solution or the collagen solution was 7.5 μM or 20 μg/ml, respectively.
(§6) The maximum aggregation rate and the aggregation inhibitory rate were calculated by the following equations. [formula]
(§7) IC50, which is a concentration of the test compound being required to inhibit the platelet aggregation reaction by 50%, was determined from the aggregation inhibitory rates at two different concentrations of a test compound.

The test system of experiment [3] is platelet aggregation (ADP). Nature of the experiment: Platelet aggregation inhibitory activity, ADP-induced (Born's turbidimetry, rabbit PRP). It counts as cell-based, male rabbit (NZW). Conditions: Oryctolagus cuniculus, ADP 7.5 μM final, 37° C. As for the experimental part: as §1, §2, §3, §4, §5, §6, §7
Experiment [4] deals with T1, cGMP-inhibited cAMP phosphodiesterase (PDE3) (Homo sapiens, UniProt Q14432).
T1 construct: made in house; host or cells: insect cell Sf9, baculovirus expression system
Kind of experiment: cGMP-inhibited cAMP phosphodiesterase (PDE3) inhibitory activity. Conditions: 0.4 μM [8-3H]cAMP, pH 8.0, 30° C., 15 minutes; recombinant enzyme from Sf9; read-out: PDE inhibitory activity IC50. It counts as biochemical.

In experiment [5] the test system is left common carotid artery injured by balloon. Nature of the experiment: Intima thickening inhibitory activity after balloon injury (3H-thymidine in carotid artery). Conditions: Rattus norvegicus, oral. The format is in vivo, male SD rats. As for the experimental part: Pharmacological Experiment 3 Intima thickening inhibitory activity
Male SD rats (6-week old) were separated into groups (8 rats per each group) and numbered. A test compound solution, which was prepared by suspending a test compound in 1% hydroxypropylmethyl cellulose 2910 TC-5 (HPMC, manufactured by Shin-etsu Chemical Co., Ltd.) was orally administered to the rats. In the control group, 1% HPMC solution was orally administered instead of the test compound solution. One or two hours thereafter, two french balloon catheters (manufactured by Baxter Travenol Inc.) were inserted into the left common carotid artery of the rats, and the artery was injured by abrading five times with a balloon. The day of balloon abrasion was considered as Day 0. On the following day (Day 1), a test compound was orally administered to the rats two times a day (in the morning and in the evening). On Day 2, 1.48 MBq/ml of ^3 H-thymidine (dose: 5 ml/kg, manufactured by NEN Research Products, Ltd.) was injected at the tail vein of the rats about one hour after the administration of the test compound so that the time after the balloon injury was fixed to the same in each rat. Precisely 45 minutes after the injection of ^3 H-thymidine at the tail veil, the common carotid artery of the rats was taken out.
In the test compound-treated group, only the left common carotid artery which was injured by balloon was taken out, and in the control group, both the left and right common carotid arteries were taken out. The common carotid artery thus obtained was cut to pieces of exact 1 cm long, and the unnecessary portions such as the outer membrane or the nerves were completely removed. The common carotid artery was put into a glass vial, and thereto was added a 0.5 N sodium hydroxide (0.5 ml), and the mixture was incubated at 37° C. overnight to be solubilized. The mixture was neutralized with a 5 N hydrochloric acid (0.05 ml), and thereto was further added an aqueous hydrogen peroxide solution (0.1 ml). Aquasol II (10 ml, manufactured by Du Pont Co.) was added thereto, and the mixture was well stirred and then allowed to stand for 30 minutes. The radioactivity of tritium in the mixture was counted by liquid scintillation counter. The intima thickening inhibitory activity of the test compound was calculated by the following equation. [formula] L (c): The amount of tritium in the left common carotid artery in the control group (dpm)
R (c): The amount of tritium in the right common carotid artery in the control group (dpm)
L: The amount of tritium in the left common carotid artery in the test compound-treated group (dpm)

T1 sequence (Q14432 whole entry): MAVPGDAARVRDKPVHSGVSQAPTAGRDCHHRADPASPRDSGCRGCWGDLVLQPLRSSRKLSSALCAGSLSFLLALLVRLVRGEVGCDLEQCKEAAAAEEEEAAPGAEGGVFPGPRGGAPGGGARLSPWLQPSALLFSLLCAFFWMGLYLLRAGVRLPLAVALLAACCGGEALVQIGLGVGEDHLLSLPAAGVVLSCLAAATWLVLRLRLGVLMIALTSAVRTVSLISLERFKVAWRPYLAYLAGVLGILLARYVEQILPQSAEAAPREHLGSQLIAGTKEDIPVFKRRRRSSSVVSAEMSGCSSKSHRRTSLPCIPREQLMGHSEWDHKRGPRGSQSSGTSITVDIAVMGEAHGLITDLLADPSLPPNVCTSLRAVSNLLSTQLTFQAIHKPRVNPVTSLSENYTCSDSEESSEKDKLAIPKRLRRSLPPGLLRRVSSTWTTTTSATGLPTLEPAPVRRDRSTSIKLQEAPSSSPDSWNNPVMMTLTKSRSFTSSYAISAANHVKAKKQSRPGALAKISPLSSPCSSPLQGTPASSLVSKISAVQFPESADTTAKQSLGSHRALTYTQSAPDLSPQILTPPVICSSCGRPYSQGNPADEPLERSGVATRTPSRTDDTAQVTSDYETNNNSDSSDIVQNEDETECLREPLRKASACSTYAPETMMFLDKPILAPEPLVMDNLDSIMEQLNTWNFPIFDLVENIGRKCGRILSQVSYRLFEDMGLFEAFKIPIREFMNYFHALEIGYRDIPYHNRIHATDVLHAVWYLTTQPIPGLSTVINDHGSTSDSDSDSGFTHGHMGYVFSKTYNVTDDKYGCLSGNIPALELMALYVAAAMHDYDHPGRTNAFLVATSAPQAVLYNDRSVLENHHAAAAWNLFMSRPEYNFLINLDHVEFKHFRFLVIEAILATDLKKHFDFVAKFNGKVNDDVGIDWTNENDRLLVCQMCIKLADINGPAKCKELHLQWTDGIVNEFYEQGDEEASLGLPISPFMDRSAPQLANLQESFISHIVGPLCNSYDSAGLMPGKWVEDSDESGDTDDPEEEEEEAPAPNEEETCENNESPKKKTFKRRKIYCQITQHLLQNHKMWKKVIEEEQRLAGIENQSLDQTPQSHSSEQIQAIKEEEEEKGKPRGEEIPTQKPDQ

For the molecule `O=C1CCc2cc(OCCCNC(=O)N(C3CC3)[C@@H]3CCCC[C@H]3O)cc(F)c2N1` (relative stereo) [Ex. 25], the inhibition in vivo at 30 mg/kg in experiment [1] came to 100%. For the same molecule, the values for the half-inhibitory concentration (IC50) in experiment [2] and in experiment [3] were 3900 nM and 4650 nM, respectively.

Regarding `COc1cc(OCCCNC(=O)N(C2CC2)[C@@H]2CCCC[C@H]2O)cc2ccc(=O)[nH]c12` (relative stereo) [Ex. 27], the inhibition in vivo at 30 mg/kg in experiment [1] came to 80%. Moreover, the figures for the IC50 in experiment [4], in experiment [2] and in experiment [3] were 2180 nM, 31600 nM and 31600 nM, respectively.

In the case of `CC(O)CN(CCCOc1ccc2[nH]c(=O)ccc2c1)C(=O)N(C)C1CCCCC1` (stereo not drawn) [Ex. 21], the inhibition in vivo at 30 mg/kg in experiment [1] amounted to 59%. The results for the half-maximal inhibitory concentration (IC50) in experiment [2] and in experiment [3] were 3250 nM and 2080 nM, respectively.

On to `CN(C(=O)N(CCCO)CCCOc1ccc2[nH]c(=O)ccc2c1)C1CCCCC1` [Ex. 22], for which, in experiment [1], the inhibition in vivo at 30 mg/kg came to 69%. The IC50 in experiment [2] came out at 2800 nM; in experiment [3], 1310 nM.

Turning to `CCC(CN(C(=O)NCCCOc1ccc2[nH]c(=O)ccc2c1)C1CCCCC1)OC(C)=O` (stereo not drawn) [Ex. 11], the inhibition in vivo at 30 mg/kg is 80% in experiment [1] and 33% in experiment [5]. Further, the half-maximal inhibitory concentration (IC50) in experiment [2] stood at 2100 nM; in experiment [3], 600 nM.

Turning to `CCC(CN(C(=O)NCCCOc1ccc2[nH]c(=O)ccc2c1)C1CCCCC1)OCc1ccccc1` (stereo not drawn) [Ex. 20], in experiment [1], the inhibition in vivo at 30 mg/kg stood at 66%. The IC50 in experiment [2] came to 290 nM; in experiment [3], 220 nM.

With `O=C(NCCCOc1ccc2[nH]c(=O)ccc2c1)N(C1CCCCCCC1)[C@@H]1CCCC[C@H]1O` (relative stereo) [Ex. 24], the inhibition in vivo at 30 mg/kg in experiment [1] amounted to 100%. Further, the figures for the IC50 in experiment [4], in experiment [2] and in experiment [3] were 0.647 nM, 30 nM and 80 nM, respectively.

Take `O=C(NCCCOc1ccc2[nH]c(=O)ccc2c1)NN(C1CCCCC1)C1CC1` [Ex. 29]: the results for the inhibition in vivo at 30 mg/kg in experiment [1] and in experiment [5] were 91% and 29.3%, respectively. The values for the IC50 in experiment [2] and in experiment [3] were 30 nM and 10 nM, respectively.

Regarding `O=C(NCCCCOc1ccc2[nH]c(=O)ccc2c1)N(C1CC1)[C@@H]1CCCC[C@H]1O` [Ex. 31], the inhibition in vivo at 30 mg/kg in experiment [1] is 48%. Also, the IC50 in experiment [2] was 2570 nM; in experiment [3], 15700 nM.

As to `CCOC(CC)CN(C(=O)NCCCOc1ccc2[nH]c(=O)ccc2c1)C1CCCCC1` (stereo not drawn) [Ex. 19], the inhibition in vivo at 30 mg/kg in experiment [1] was 84%; in experiment [5], 23.4%. Besides, the IC50 was 590 nM in experiment [2] and 180 nM in experiment [3].

Regarding `O=C(NCCOc1ccc2[nH]c(=O)ccc2c1)N(C1CC1)[C@@H]1CCCC[C@H]1O` (relative stereo) [Ex. 30], the inhibition in vivo at 30 mg/kg in experiment [1] amounted to 100%. The values for the IC50 in experiment [2] and in experiment [3] were 2940 nM and 3670 nM, respectively.

Regarding `CCC(CN(C(=O)N(C)CCCOc1ccc2[nH]c(=O)ccc2c1)C1CCCCC1)OC(C)=O` (stereo not drawn) [Ex. 14, 6-{3-[1-methyl-3-cyclohexyl-3-(2-acetyloxybutyl)ureido]propoxy}carbostyril], the values for the inhibition in vivo at 30 mg/kg in experiment [1] and in experiment [5] were 66% and 15.7%, respectively. The 50% inhibitory concentration (IC50) was 2200 nM in experiment [2] and 1500 nM in experiment [3].

In the case of `CCCN(CCCOc1ccc2[nH]c(=O)ccc2c1)C(=O)N(C)C1CCCCC1` [Ex. 23, 6-[3-(3-cyclohexyl-3-methyl-1-propylureido)propoxy]carbostyril], in experiment [1], the inhibition in vivo at 30 mg/kg was 90%. Moreover, the IC50 in experiment [2] was found to be 2510 nM; in experiment [3] it was 13400 nM.

On to `CCC(O)CN(C(=O)N(C)CCCOc1ccc2[nH]c(=O)ccc2c1)C1CCCCC1` (stereo not drawn) [Ex. 13, 6-{3-[1-methyl-3-cyclohexyl-3-(2-hydroxybutyl)ureido]propoxy}carbostyril], for which the inhibition in vivo at 30 mg/kg in experiment [1] is 58%; in experiment [5], 16.6%. Further, the values for the half-inhibitory concentration (IC50) in experiment [2] and in experiment [3] were 2000 nM and 2100 nM, respectively.

With `O=C(NCCCOc1ccc2[nH]c(=O)ccc2c1)N(C1CC1)[C@@H]1CCCC[C@H]1O` (relative stereo) [Ex. 6, 6-{3-[3-(trans-2-hydroxycyclohexyl)-3-cyclopropylureido]propoxy}carbostyril], the inhibition in vivo at 30 mg/kg in experiment [1] is 100%. In addition, the inhibition in vivo at 10 mg/kg in experiment [5] (dose 10 mg/kg) worked out at 31.4%. The concentration for half-maximal inhibition (IC50) in experiment [2] came out at 1900 nM; in experiment [3], 1800 nM.

`CC(=O)O[C@@H]1CCCC[C@H]1N(C(=O)NCCCOc1ccc2[nH]c(=O)ccc2c1)C1CC1` (relative stereo) [Ex. 7, 6-{3-[3-(trans-2-acetyloxycyclohexyl)-3-cyclopropylureide]propoxy}carbostyril]: the results for the inhibition in vivo at 30 mg/kg in experiment [1] and in experiment [5] were 67% and 15.2%, respectively. Moreover, the results for the half-maximal inhibitory concentration (IC50) in experiment [2] and in experiment [3] were 2100 nM and 18200 nM, respectively.

For `CCN(CCCOc1ccc2[nH]c(=O)ccc2c1)C(=O)N(C)C1CCCCC1` [Ex. 15], the inhibition in vivo at 30 mg/kg was determined as 86% in experiment [1] and 11.9% in experiment [5]. Moreover, the concentration for half-maximal inhibition (IC50) in experiment [2] was found to be 16100 nM; in experiment [3], 15200 nM.

As for `C=CCN(CCCOc1ccc2[nH]c(=O)ccc2c1)C(=O)N(C)C1CCCCC1` [Ex. 16, 6-[3-(3-Cyclohexyl-3-methyl-1-allylureido)propoxy]carbostyril], the inhibition in vivo at 30 mg/kg is 77% in experiment [1] and 33.3% in experiment [5]. In addition, the concentration for half-maximal inhibition (IC50) was 20000 nM in experiment [2] and 4600 nM in experiment [3].

As to `O=C(NCCCOc1ccc2[nH]c(=O)ccc2c1)N(C1CCCCCC1)[C@@H]1CCCC[C@H]1O` (relative stereo) [Ex. 18], the figures for the inhibition in vivo at 30 mg/kg in experiment [1] and in experiment [5] were 69% and 19%, respectively. Besides, the results for the half-maximal inhibitory concentration (IC50) in experiment [2] and in experiment [3] were 30 nM and 120 nM, respectively.

For orientation: IC50 means the concentration needed to halve the response being measured.
